Holding throughout (assay): PDK1 activity assay with T308tide
What all share (type): biochemical

The target of assay [1] is T1, GST-PDK1 wt (Homo sapiens, UniProt O15530).
T1 construct: different protein constructs, comprising the full length protein or the catalytic domain alone; made in house; host or cells: HEK293 cells (pEBG-2T-PDK1)
T1 sequence (O15530 1-556): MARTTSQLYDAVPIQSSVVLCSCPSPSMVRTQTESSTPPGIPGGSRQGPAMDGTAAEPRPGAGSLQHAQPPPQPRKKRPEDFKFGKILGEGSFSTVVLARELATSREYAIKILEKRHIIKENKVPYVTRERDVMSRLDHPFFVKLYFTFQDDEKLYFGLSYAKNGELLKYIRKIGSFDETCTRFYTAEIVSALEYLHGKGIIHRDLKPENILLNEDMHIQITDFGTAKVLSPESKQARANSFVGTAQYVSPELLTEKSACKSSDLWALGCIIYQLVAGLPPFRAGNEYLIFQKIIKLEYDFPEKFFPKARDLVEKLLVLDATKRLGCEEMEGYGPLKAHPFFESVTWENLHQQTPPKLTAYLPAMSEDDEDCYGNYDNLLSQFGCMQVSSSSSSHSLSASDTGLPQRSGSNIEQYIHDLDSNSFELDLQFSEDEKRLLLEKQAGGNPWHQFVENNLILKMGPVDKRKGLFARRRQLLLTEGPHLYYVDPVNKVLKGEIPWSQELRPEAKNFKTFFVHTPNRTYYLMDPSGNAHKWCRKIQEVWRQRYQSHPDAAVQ
Conditions: for PDK1 (%) activity: 1% DMSO = 100%; for activation of PDK1 (in words): PDK1 wild type. The method, then:
(§1) Protein kinase activity tests were performed essentially as previously described (Balendran et al., 2000; Biondi et al., 2000; Biondi et al., 2001). Substrates used were either MBP (for PKCζ or polypeptides (Crosstide for PKB, S6K, SGK and PRK2; T308tide for PDK1, and Kemptide for PKA). PKA (Sigma) was measured in the presence of 100 μM cAMP. Alternatively, assays were performed in a 96 well format, aliquots spotted on p81 phosphocellulose papers (Whatmann), washed in 0.01% phosphoric acid, dried, and then exposed and analysed using Phospholmager technology (Storm, Molecular Dynamics). Activity measurements were performed in duplicates with less than 10% difference between duplicate pairs. Experiments were repeated at least twice, although most of the experiments were repeated multiple times, with similar results.
(§2) PDK1 activity assay was performed in a 20 μl mix containing 50 mM Tris-HCl pH 7.5, 0.05 mg/ml BSA, 0.1% β-mercaptoethanol, 10 mM MgCl2, 100 μM [γ^32P]ATP (5-50 cpm/pmol), 0.003% Brij, 150 ng PDK1, and T308tide (from 0.05 to 1 mM). PDK1 specific activity was approximately 5 U/mg (when measured at 1 mM T308tide). The effect of small compounds on PDK1 was repeated with proteins from different purification batches and with different protein constructs, comprising the full length protein or the catalytic domain alone, with similar results. […] This variability may be due to the PIFtide/compound-stimulated autophosphorylation of the activation loop in certain preparations having less than a 1:1 molar phosphorylation stoichiometry at this site.
(§3) PDK1 activity was measured at room temperature using a polypeptide substrate derived from the activation loop phosphorylation site of PKB, T308tide (0.1 mM). […] GST-PDK1 wt was purified in numerous occasions and the maximal activation level of different batches varied between 3 and 8 fold activation with PIFtide or compound 1. Variations in the basal activity and fold activation were also observed in mutants. Therefore, comparisons in the maximal level of activation between mutants should be performed with care. The data shown are from an experiment where PIFtide concentrations were tested between 50 nM and 20 µM and compound 1 concentrations were between 5 μM and 200 μM, in triplicate. AC50 and max. activity were estimated by fitting the data to a hyperbola using Kaleidagraph software. One Unit of PDK1 activity was defined as the amount required to catalyse the phosphorylation of 1 nmol of the T308tide in 1 min.

For assay [2], the target named is T2, GST-PDK1 [Thr148Val] (Homo sapiens, UniProt O15530, T148V).
T2 construct: different protein constructs, comprising the full length protein or the catalytic domain alone; made in house; host or cells: HEK293 cells (pEBG-2T-PDK1 mutant)
T2 sequence (O15530 1-556 T148V): T1 sequence (O15530 1-556) with T148V
Conditions: for activation of PDK1 mutant (in words): PDK1[Thr148Val], 20 μM. The method, then: as §1, §2, §3

Assay [3] deals with T3, GST-PDK1 [Val127Leu] (Homo sapiens, UniProt O15530, V127L).
T3 construct: different protein constructs, comprising the full length protein or the catalytic domain alone; made in house; host or cells: HEK293 cells (pEBG-2T-PDK1 mutant)
T3 sequence (O15530 1-556 V127L): T1 sequence (O15530 1-556) with V127L
Conditions: for activation of PDK1 mutant (in words): PDK1[Val127Leu]. How it is done:
as §1, §2, §3

Setting [4] is: GST-PDK1 wt, T308tide 0.1 mM, read-out: AC50.

Where a chain is given by its changes, count along the chain named. Where two headings read alike, the source gives them in different places. Square brackets hold non-standard residues; d marks the D form. Ends that are not written are not given here. pS = N[C@@H](COP(=O)(O)O)C(=O)O

On to `O=C(O)CSC(CC(=O)c1ccc(Cl)cc1)c1ccccc1` (stereo not shown) [Compound 1], for which the figures for the “PDK1 (%) activity” value in assay [1] (20 μM compound) and in assay [1] (200 μM compound) were 234% and 370%, respectively. Besides, the concentration at half-maximal activity (AC50) (usually the midpoint of the concentration-response curve, whichever way the signal moves) is 25 µM in assay [1] (FIG. 2B, read-out: AC50 of PDK1 activation); 34 ± 9 µM in assay [1] (setting [4]); 102 ± 19 µM in assay [2] (GST-PDK1 [Thr148Val], read-out: AC50); “No Effect” in assay [3] (GST-PDK1 [Val127Leu]). In addition, the Max. activity in assay [1] (GST-PDK1 wt, T308tide 0.1 mM) was determined as 1.1 ± 0.07 U/mg; in assay [2] (GST-PDK1 [Thr148Val]) it was 2.44 ± 0.26 U/mg. Also, the “activation of PDK1 (in words)” value in assay [1] was “activated PDK1”. The “activation of PDK1 mutant (in words)” value in assay [2] is listed as “still activated”.

As to `COC(=O)CSC(CC(=O)c1ccc(Cl)cc1)c1ccccc1` (stereo not shown) [Compound 2], the “PDK1 (%) activity” value is 109% in assay [1] (20 μM compound) and 124% in assay [1] (200 μM compound). Moreover, in assay [1], the “activation of PDK1 (in words)” value is “inactive”.

In the case of “P-HM-RSK: phosphorylated HM polypeptide of RSK: KGAGGGGFRGFS(P)FVA (KGAGGGGFRGF[pS]FVA)”, in assay [1], the “activation of PDK1 (in words)” value is “activated”. Moreover, the “activation of PDK1 mutant (in words)” value was “completely abolished” in assay [2] and “fully activated” in assay [3].

Consider “REPRILSEEEQEMFRDFDYIADWC [PIFtide, reference compound]”, for which the Max. activity in assay [1] (GST-PDK1 wt, T308tide 0.1 mM) worked out at 0.9 ± 0.05 U/mg; in assay [3] (GST-PDK1 [Val127Leu]), 0.99 ± 0.08 U/mg. Moreover, the AC50 was 0.11 ± 0.03 µM in assay [1] (setting [4]); “INH” in assay [2] (GST-PDK1 [Thr148Val]); 0.12 ± 0.03 µM in assay [3] (GST-PDK1 [Val127Leu], read-out: AC50). For the same compound, in assay [3], the “activation of PDK1 mutant (in words)” value is “fully activated”.

These data come from patent publication US20110152166A1, “METHOD OF MODULATION OF PROTEIN PHOSPHORYLATION-DEPENDENT CONFORMATIONAL TRANSITIONS WITH LOW MOLECULAR WEIGHT COMPOUNDS” (priority 2006, published 2011).
